Where “and” joins values, the source holds several entries; their conditions need not be identical. Equal values may be shown once.
Assays:
[1] = Permeability testing (apparent permeability Papp) in tricellular hiPSC-derived BBB model, 96-transwell; details: human
Excerpt: All human iPSC-derived blood-brain barrier cells (Brain Microvascular Endothelial Cells (BMECs), Astrocytes and Pericytes (AP)), media (BMEC maintenance medium and AP medium), and media supplements (plating supplement 500X) have been purchased from Fujifilm Cellular Dynamics Inc. (FCDI, Madison, WI, US, catalogue: R1241). The respective certificates of analysis, including cell characterization data, can be accessed in Supplementary Data File 1. All cells were derived from the same proprietary donor. […] All additional experiments included 96-transwell® membranes only. […] BMEC maintenance medium contained only 1 % P/S without supplements. Unless stated differently, transwell® compartment volumes were used as recommended by Corning including 75 µL apically and 235 µL basolaterally for 96-transwells® as well as 300 µL apically and 1000 µL basolaterally for 24-transwells®.
On day −2, 24-transwells® were coated apically with Collagen IV-Fibronectin coating solution and stored overnight at 4 °C (Fig. 1A). In contrast, 96-transwells® were first flipped upside down, and coated with 50 µL Fibronectin-Collagen IV solution on the basolateral side for 4 h at 37 °C and 5 % CO2 and stored overnight at 4 °C (Fig. 1B). On day −1, 24-transwells® were flipped upside down and coated with 100 µL of a 0.1 % Gelatin solution for 0.5 h at room temperature (RT) before replacement with 100 µL of the AP seeding solution containing 1.1 × 10^6 astrocytes/mL and 2.2 × 10^6 pericytes/mL in AP plating medium. After seeding, cells were incubated to attach for 4 h at 37 °C and 5 % CO2 and then flipped back to normal orientation. […] In both cases, Collagen IV-Fibronectin coating solution was replaced with AP plating medium. […] Here, cells were incubated to attach for 4 h at 37 °C and 5 % CO2 before flipping the transwells® slowly back to normal orientation. To inspect the cell layers for obvious leakages or cell detachment, blank transwell® filters and fully assembled models were observed under a Zeiss Primovert microscope (Carl Zeiss Microscopy GmbH, Jena, Germany) (Supplementary Figure 1). On day 1, BMEC plating medium was replaced by BMEC maintenance medium. After 24 h at 37 °C and 5 % CO2 barrier integrity was evaluated to consider only highly restrictive BBB models for pharmaceutical permeability testing.
After 60 min at 37 °C, 5 % CO2 and 100 rpm shaking on an orbital shaker, 50 µL were sampled from the donor and acceptor (containing APs) compartment. Following a transfer to 96-well plates, samples were diluted 1:1 with 50 µL of DPBS.
With cac being the analyte concentration in the acceptor compartment (µM), t the duration of the incubation (s, here 3 600 s), A the surface area of the respective transwell® membrane (cm^2), Vac the volume of the acceptor compartment (mL) and cdc the applied concentration in the donor compartment (µM). Papp was reported as the average of triplicate 24-transwell® models and six 96-transwell® model replicates.
Additional compound data, including final solvent concentrations and physicochemical properties, were summarized in Supplementary Table 1. After 60 min at 37 °C, 5 % CO2 and 100 rpm shaking on an orbital shaker, 50 µL were sampled from the acceptor and donor compartments of quadruplicate BBB models as well as cell-free controls.
Then, all samples were subject to protein precipitation with acetonitrile:methanol 50:50 (v/v). After centrifugation for 10 min at 10 000 × g, supernatants were transferred to new vials and subsequently evaporated to dryness. […] Derivatization was executed in a ThermoMixer C (Eppendorf, Hamburg, Germany) at 65 °C and 600 rpm for 15 min. After evaporating samples to dryness again, final reconstitution was performed as described above.

BBB [2] = details: cited from earlier work; for In vivo human rate constant for compound transfer from blood across the BBB into brain (K1): human clinical PET, ref Ghazanfari et al. 2024, Le Roux et al. 2019
hiPSC-derived BBB = tested on: hiPSC-derived BBB; parameters: method as in Le Roux et al., 2019; details: high in vitro permeability not confirmed by this study; ref Le Roux et al., 2019; cited from earlier work
[3] = source not stated; cited from earlier work
BBB [4] = experiment: Prediction of human in vivo K1 from in vitro Papp with the linear model
[5] = tested on: hiPSC-derived blood-brain barrier model; details: human
rats = details: oral dosing, ref Amaraneni et al., 2016, Kim et al., 2008, 2007; cited from earlier work
[6] = tested on: hiPSC-derived blood-brain barrier model; experiment: Bioavailable radioactivity of [benzyl-14C]-Deltamethrin in the transwell media by liquid scintillation counting; details: 1h, per replicate, listed as [benzyl-14C]-Deltamethrin
[7] = male, in vitro apparent permeability Papp, 96-transwell hiPSC-derived BBB, 60 min, 5 µM (17β-Estradiol 10 µM, Deltamethrin 3 µM)
[8] = In vitro hiPSC-derived blood-brain barrier model apparent permeability (Papp)
[9] = male, in vitro apparent permeability Papp

SMILES: C#Cc1cccc(Nc2ncnc3cc(OCCOC)c(OCCOC)cc23)c1 [Erlotinib]
- Papp at 60 min ([1]; male): 12.1 ×10⁻⁶ cm/s
- Papp at 60 min [1, 7]: < 15 ×10⁻⁶ cm/s
- In vivo human rate constant for compound transfer from blood across the BBB into brain (K1) (BBB [2]): 0.02 mL min^-1 cm^-3
- in vitro permeability Papp in previous hiPSC-derived BBB results (hiPSC-derived BBB): > 15 × 10^–6 cm/s

SMILES: CN(C)C(=O)C(CCN1CCC(O)(c2ccc(Cl)cc2)CC1)(c1ccccc1)c1ccccc1 [Loperamide]
- Papp at 60 min ([1]; male): 6.75 ×10⁻⁶ cm/s
- Papp at 60 min [1, 7]: < 15 ×10⁻⁶ cm/s
- In vivo human rate constant for compound transfer from blood across the BBB into brain (K1) (BBB [2]): 0.002 mL min^-1 cm^-3
- human in vivo K1 (clinically shown to enter the human brain relatively poorly) (BBB [2]; human, ref Bauer et al., 2015, Traxl et al.): < 0.05 mL cm^-3 min^-1
- LogP [3]: 5.13

SMILES: C[C@]12CC[C@@H]3c4ccc(O)cc4CC[C@H]3[C@@H]1CC[C@@H]2O [17β-Estradiol]
- Papp at 60 min [1, 8]: 16.9 ×10⁻⁶ cm/s
- Papp at 60 min [1, 9]: > 15 ×10⁻⁶ cm/s
- In vivo human rate constant for compound transfer from blood across the BBB into brain (K1) (BBB [2]): 0.24 mL min^-1 cm^-3
- human in vivo permeability K1 (elevated) (BBB [2]; human, ref Delforge et al., 1995, Le Roux et al., 2019, Zubieta et al., 2000): > 0.1 mL cm^-3 min^-1

SMILES: CCN1CCC[C@H]1CNC(=O)c1c(O)c(Cl)cc(Cl)c1OC [Raclopride]
- Papp at 60 min [1, 8]: 16.8 ×10⁻⁶ cm/s
- Papp at 60 min [1, 9]: > 15 ×10⁻⁶ cm/s
- In vivo human rate constant for compound transfer from blood across the BBB into brain (K1) (BBB [2]): 0.09 mL min^-1 cm^-3

SMILES: CCOC(=O)c1ncn2c1CN(C)C(=O)c1cc(F)ccc1-2 [Flumazenil]
- LogP [3]: 1.9

SMILES: CC1(C)[C@H](C(=O)O[C@H](C#N)c2cccc(Oc3ccccc3)c2)[C@@H]1C=C(Br)Br [Deltamethrin]
- Papp at 60 min [1, 9]: 0.979 ×10⁻⁶ cm/s
- predicted in vivo K1 (BBB [4]; after insertion of Papp into the linear model): −0.099 mL cm^-3 min^-1
- Prediction of K1 (BBB [4]; human in vivo K1 predicted from in vitro Papp with the linear model): -0.099 mL min^-1 cm^-3
- Bioavailable [benzyl-14C]-Deltamethrin [5]: 786.44 Bq
- brain entry and neurotoxic effects in rats (rats): entered the brain and exhibited neurotoxic effects only after 10 mg/kg oral dosing
- Radioactivity Sample apical ([6]; BBB model, acceptor compartment): 1.40 Bq and 1.53 Bq and 1.70 Bq and 2.08 Bq
- Radioactivity Sample basolateral ([6]; BBB model, donor compartment): 737.12 Bq and 789.28 Bq and 793.66 Bq and 818.98 Bq
- Radioactivity Blank apical ([6]; cell-free control transwell with compound, acceptor compartment): 3.00 Bq and 3.65 Bq and 3.95 Bq and 2.93 Bq
- Radioactivity Blank basolateral ([6]; cell-free control transwell with compound, donor compartment): 762.65 Bq and 864.27 Bq and 830.94 Bq and 846.43 Bq

From article PMC13288645, “A cryopreserved and in vivo-in vitro validated human induced pluripotent stem cell blood-brain barrier model for reliable neurotoxicity assessment” (NAM journal, 2025)
